Laboratory results published in patent publication US9233079B2, “Method for producing nanocapsules in the absence of an organic solvent, and nanocapsules produced thereby” (UNIVERSITE CLAUDE BERNARD LYON I, priority 2008, dated 2016).

Assay: Saturation concentration of chlorhexidine base in water
Assay type: physicochemical
Experimental: The size and the zeta potential of the nanocapsules, determined using a Zetamaster® S, are 450 nm and −40 mV, respectively. The concentration of free (i.e. nonencapsulated) chiorhexidine in the nanocapsule suspension was determined after filtration of the colloidal suspension through a 0.22 μm filter. After dilution in distilled water, the concentration of chiorhexidine base free in the filtrate, determined by high performance liquid chromatography (HPLC) (H. Lboutounne, V. Faivre, F. Faison, and F. Pirot, Skin Pharmacology and Applied Skin Physiology 17: 176-182 (2004); H. Lboutounne, J.-F. Chaulet, C. Ploton, F. Faison, and F. Pirot Journal of Controlled Release 82: 319-334 (2002); D. T. T. Nhung, A.-M. Freydiere, H. Constant, F. Faison, and F. Pirot International Journal of Pharmaceutics 334:166-172 (2007)), was in the region of 0.008%, i.e. the saturation concentration of chiorhexidine base in water. The concentration of encapsulated chlorhexidine base was determined by virtue of the difference between the total concentration of chlorhexidine base in the suspension and the concentration of free chlorhexidine. The total concentration of encapsulated chiorhexidine base was determined after dilution of an aliquot of colloidal suspension in a mixture of acetonitrile/sodium acetate (30 mM) (50/50, v/v). […]

- saturation concentration of chlorhexidine base in water: ~0.008%
Compound: N=C(NCCCCCCNC(=N)NC(=N)Nc1ccc(Cl)cc1)NC(=N)Nc1ccc(Cl)cc1 [chlorhexidine base, Chlorhexidine base]
